For experiment [1], the target named is T1, Gastrin receptor (gastric glands) (Cavia porcellus, UniProt H0VZC5).
T1 construct: The washed guinea pig gastric glands prepared as above were resuspended; from tissue; host or cells: guinea pig gastric mucosal glands (male Hartley)
T1 sequence (H0VZC5 1-426): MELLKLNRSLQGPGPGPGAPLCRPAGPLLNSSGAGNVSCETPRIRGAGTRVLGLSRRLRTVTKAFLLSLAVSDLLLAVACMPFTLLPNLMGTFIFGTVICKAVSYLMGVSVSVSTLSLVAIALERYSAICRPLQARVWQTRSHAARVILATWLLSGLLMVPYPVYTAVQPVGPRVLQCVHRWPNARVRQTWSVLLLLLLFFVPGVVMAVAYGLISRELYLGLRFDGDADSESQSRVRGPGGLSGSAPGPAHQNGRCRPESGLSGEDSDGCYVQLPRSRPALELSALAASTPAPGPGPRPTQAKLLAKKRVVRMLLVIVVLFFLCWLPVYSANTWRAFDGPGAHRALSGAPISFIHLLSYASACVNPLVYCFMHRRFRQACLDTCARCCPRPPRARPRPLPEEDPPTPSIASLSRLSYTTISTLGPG
The experiment can be described thus: Gastrin Receptor Binding in Guinea Pig Gastric Glands. Also on record: species or system guinea pig (male Hartley). The note with it: ^125 I-gastrin, 25° C., 30 minutes, read-out: IC50 ^125 I-Gastrin Gastric Glands.

Experiment [2] has as its target T2, CCK receptor (brain, cerebral cortex) (Cavia porcellus, UniProt H0VZC5).
T2 construct: Cerebral cortex was dissected and used as a receptor source; from tissue; host or cells: guinea pig cerebral cortex membranes (male Hartley)
T2 sequence (H0VZC5 1-426): T1 sequence (H0VZC5 1-426)
The experiment can be described thus: biochemical. It counts as binding, Male Hartley guinea pigs. The note with it: guinea pig cerebral cortex, ^125 I-CCK-33, 25° C., 2 hours; read-out: IC50 ^125 I-CCK Brain. The method in brief:
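Binding of [radiolabeled] CCK-33 measured by gamma counting of centrifuged pellets after 2 h at 25°C. Membranes came from guinea pig brain cortex, suspended in 10 mM HEPES, 5 mM MgCl2, 1 mM EGTA, 0.25 mg/ml bacitracin, 0.4% BSA.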

The target of the next experiment is T3, CCK receptor (pancreas) (Rattus norvegicus, UniProt P30551).
T3 construct: The whole pancreas was dissected free of fat tissue and was homogenized; from tissue; host or cells: rat pancreas membranes (Sprague-Dawley)
T3 sequence (P30551 1-444): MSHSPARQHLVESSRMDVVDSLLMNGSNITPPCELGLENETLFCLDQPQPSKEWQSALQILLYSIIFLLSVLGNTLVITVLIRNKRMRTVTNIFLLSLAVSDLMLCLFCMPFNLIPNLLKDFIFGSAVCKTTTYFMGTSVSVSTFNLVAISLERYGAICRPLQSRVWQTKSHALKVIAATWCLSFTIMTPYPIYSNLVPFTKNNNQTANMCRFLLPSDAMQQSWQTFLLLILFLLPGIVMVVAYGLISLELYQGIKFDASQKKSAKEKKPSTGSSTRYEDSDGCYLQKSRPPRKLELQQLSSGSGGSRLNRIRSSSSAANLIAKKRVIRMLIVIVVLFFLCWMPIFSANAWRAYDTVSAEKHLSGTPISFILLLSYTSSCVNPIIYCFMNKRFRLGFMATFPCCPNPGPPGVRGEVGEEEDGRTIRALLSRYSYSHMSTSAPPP
The experiment can be described thus: CCK Receptor Binding (Pancreas): inhibition of ^125 I-CCK-33 binding. Set-up: species or system Male Sprague-Dawley rats. To be noted: IC50 ^125 I-CCK Pancreas, rat pancreas membranes, ^125 I-CCK-33, 37° C., 30 minutes. The method in brief:
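Bound ^125I-CCK-33 was counted in pellets after a 30 min, 37° C incubation followed by centrifugation. Membranes came from male Sprague-Dawley rat pancreas, assayed in Tris HCl pH 7.7 containing DTT, bacitracin, PMSF and o-phenanthroline. For Scatchard analysis, tracer was diluted with rising unlabelled CCK-33.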

Structures are written as SMILES.

Consider `Cc1ccc2c(c1)N(C)C(=O)C(NC(=O)c1cc3ccccc3[nH]1)N=C2c1ccccc1` (stereo not drawn) [Example 294, 3-N-(2,3-Dihydro-1,8-dimethyl-2-oxo-5-phenyl-1H-1,4-benzodiazepin-3-yl)-1H-indole-2-carboxamide], for which the IC50 was found to be 40 nM in experiment [1], 38 nM in experiment [2] and 0.1 nM at CCK receptor (pancreas).

The IC50 is the concentration that inhibits the measured activity by half.

The values are drawn from patent US4820834A, “Benzodiazepine analogs” (priority 1987, dated 1989).
